The test system of one data set is NEDD4 SP3 mRNA. The experiment in a line: Knockdown efficiency: NEDD4 SP3 mRNA expression by qPCR in siRNA-transfected H4 cells. The class given is cell-based, human. The following applies: under TNF-α stimulation, relative to GAPDH, remaining expression vs si-control. On the procedure: (§1) siRNA (GCAAGACAAGAGAUGAUUUtt (SEQ ID No. 23), Ambion Silencer Select siRNA, Thermo Fisher Scientific) against NEDD4 SP3, and control siRNA (Ambion Silencer Select siRNA, Thermo Fisher Scientific) were transfected into a human glioma cell line (H4 cells) using Lipofectamine RNAiMAX (Thermo Fisher Scientific), and NEDD4 SP3 knockdown cells were constructed. After stimulating the control cells and the knockdown cells with IL-6 +TNFa, the IL-6 mRNA expression was measured by qPCR (primer sequence: […] (SEQ ID No. 24) and […] (SEQ ID No.25)). Moreover, the knockdown efficiency was confirmed using the NEDD4 SP3 expression as an index. The expression level indicates the relative amount with respect to the housekeeping gene GAPDH (primer sequence: […] (SEQ ID No.26) and CGCTCCTGGAAGATGGTG (SEQ ID No.27)).

The test system of data set [1] is IL-6 mRNA expression in H4 cells. The experiment in a line: IL-6 mRNA expression by qPCR in H4 cells stimulated with IL-6 + TNFa (inflammation amplifier). The format is cell-based, human. The note with it: under IL-6 and TNF-α stimulation, relative to GAPDH, remaining expression vs si-control. The protocol: as §1
A general note: Real-time PCR tracks product formation cycle by cycle.

With “GCAAGACAAGAGAUGAUUUtt (SEQ ID No. 23) (GCAAGACAAGAGAUGAUUUTT; chemistry not given here) [NEDD4 si-SP3, siRNA against NEDD4 SP3, Ambion Silencer Select siRNA, Thermo Fisher Scientific]”, the “NEDD4 SP3 mRNA expression level compared to H4 cells introduced with si-control” value with NEDD4 SP3 mRNA came out at 4.2%. Moreover, in data set [1], the “IL-6 mRNA expression level compared to H4 cells introduced with si-control” value came to 41.0%.

The values are drawn from patent publication US20210032633A1, “DRUG FOR CHRONIC INFLAMMATORY DISEASE AND METHOD FOR EVALUATING SUSCEPTIBILITY TO CHRONIC INFLAMMATORY DISEASE” (National University Corporation Hokkaido University, priority 2018, published 2021).
